Values quoted from earlier work in patent publication US20060198860A1, “Synergistic blends of monoterpenes for mountain pine beetle pheromones” (Phero Tech Inc., priority 2005, published 2006).
Where two headings read alike, the source gives them in different places.

Tests used:
mountain pine beetles = settings: component alone
mountain pine beetle [1] = settings: for catch versus pheromones alone: five doses, less than 1.0 mg per day to over 6.0 g per day
mountain pine beetle [2] = settings: in one instance (of four Rocky Mountain locations); with trans-verbenol and exo-brevicomin
mountain pine beetle [3] = settings: myrcene from 18 mg per day to 150 mg per day; traps also baited with trans-verbenol and exo-brevicomin
mountain pine beetle [4] = settings: myrcene at approximately 100 mg per day

## CC1=CCC2C(C1)C2(C)C (centres unmarked) [3-carene]
Mountain pine beetles
  beetles caught: one female
Mountain pine beetle [1]; dose of 600 mg per day
  catches versus pheromones alone: higher than to the pheromones alone

## trans-verbenol
Mountain pine beetles
  beetles caught: no beetles

## C=C1C=CC(C(C)C)CC1 (stereo not drawn) [β-phellandrene]
Mountain pine beetle [1]
  catch versus pheromones alone: at no dose was the catch significantly higher

## CC1=CCC(C(C)C)=CC1 [γ-terpinene]
Mountain pine beetle [1]; doses of 51.7 mg per day and 1.1 g per day
  catches versus pheromone controls: significantly higher

## CC1=CCC(=C(C)C)CC1 [terpinolene]
Mountain pine beetle [2]
  synergist, times better than myrcene: ~88 times
Mountain pine beetle [1]
  catch versus pheromones alone: no combination of terpinolene with trans-verbenol and exo-brevicomin that resulted in higher catches
Mountain pine beetle [1]; highest dose (2.1 g per day)
  response versus pheromones alone: significantly lowered

## C=CC(=C)CCC=C(C)C [myrcene]
Mountain pine beetle [3]
  numbers of both sexes captured on raising the release rate: more than doubling
Mountain pine beetle [4]; females
  synergist relative to the foliage blend: over three times better
Mountain pine beetle [4]; males
  synergist relative to the foliage blend: over four times a better synergist
Mountain pine beetle [1]; doses of 0.9 and 6.4 g per day
  catches versus pheromones alone: significantly higher

## CC1=CCC2CC1C2(C)C (stereo not drawn) [α-pinene]
Mountain pine beetle [1]
  catch versus pheromones alone: at no dose was the catch significantly different

## C=C1CCC2CC1C2(C)C (stereo not drawn) [β-pinene]
Mountain pine beetle [1]
  catch versus pheromones alone: at no dose was the catch significantly different
